Results on one compound are retold here after publication PMC7071032, “In Vitro Inhibition of Hsp90 Protein by Benzothiazoloquinazolinequinones Is Enhanced in The Presence of Ascorbate. A Preliminary In Vivo Antiproliferative Study” (Molecules, 2020).

One assay has as its system MCF-7 (breast) cells. Also noted: method as in doi:10.1016/j.tetlet.2015.07.034. As to conditions: MTT, data from Valderrama et al. ref 16, read-out: IC50 ± SEM MCF-7; cited from earlier work.
For assay [1], the system named is panel of cancer cells (T24, DU-145, MCF-7). As to the kind of experiment: MTT reduction assay, panel of cancer cells (means, ranges, selectivity index). Type of assay: cell-based, human. The conditions noted are these: for IC50: Homo sapiens. How it is done: As positive control, two well-known anticancer drugs, namely TAM and 5-FU, were also tested on these cell lines. […] Regarding 5-FU, it is a broad-spectrum chemotherapeutic drug used to treat a variety of malignancies. Particularly, it has a long history of use against bladder tumors.
Such a selective index was calculated as the ratio between IC50 values of healthy cells/IC50 values in cancer cells.
Cells were seeded into 96-well plates at a density of 10,000 cells/well for 24 h and then incubated for 48 h with or without the quinone derivatives. […] The IC50 values were determined using the GraphPad Prism software (San Diego, CA, USA). Further incubation procedures and optical density reading of colored solutions were performed according to Benites et al..
In general terms: Tetrazolium dyes change colour on reduction, which living cells bring about.

The test system of a further assay is T24 cells. As to the kind of experiment: Clonogenic assay. It is filed as cell-based, human. The conditions noted are these: for cell growth compared to control conditions (100%), in brackets / number of colony forming units (CFUs): T24 cells; for number of colony forming units (CFUs): 24 h treatment, 10 days growth. How it is done: Indeed, at a dose of 0.25 µM, it decreased from 195 to 72 the number of CFUs. Otherwise, it inhibits the proliferation of T24 cells by 63% as compared to the control untreated cells. […] The percentages of the observed cell growth compared to control conditions (100%) are indicated in brackets. […] Cells were allowed to adhere overnight, and then treated with quinones for 24 h. Afterward, they were washed with warm PBS, given fresh medium, and allowed to grow for 10 days. Clonogenic survival was determined by fixing and staining colonies using crystal violet and further counting their number. The number of colonies calculated under control conditions was set as 100%.

Assay [2] has as its system transplantable primary liver tumor (TLT). Briefly: In vivo antitumor activity in TLT-bearing mice. As to conditions: TLT-bearing NMRI mice. As to the method: To go one-step further, we assessed the effect of the quinone derivative 15 in the TLT-bearing mice model. The dose of 15 used in this study (i.e., 10 mg/kg) was calculated according to doses of menadione, previously used by Verrax et al.. In mice treated with 15, the calculated mean survival time was 24.0 days as compared to 21.9 days in control untreated-animals, representing an increase in life span of 9.6 % (Figure 3). Although this ILS represents a marginal effect as compared to a minimum optimal effect […], a small trend can be inferred supporting a potential protective activity by 15, that requires to be further confirmed. […] To go further, studies are intended in the near future using a larger range of doses of 15.
Figure 3 Kaplan–Meier diagram in groups of TLT-bearing NMRI mice receiving intraperitoneal (i.p.) saline (control untreated animals). Compound 15 was also i.p. administered as 10 mg/kg body weight, 24 h after i.p. transplantation of TLT cells.
Young adult male NMRI mice (25–30 g) were obtained from Janvier Labs (Saint-Berthevin, France). After their placement at the University Animal Facilities, animals were randomized according to their body weight. They were housed in groups of five mice per cage (40 × 25 × 15 cm^3) in a constant temperature environment (22 °C) with alternating 12 h day/night cycles receiving standard food (UAR, Villemoisson-sur-Orge, France) and tap water ad libitum.
Taper et al. first observed the transplantable primary liver tumor (TLT) in 1966 in a two-month old female Swiss Webster mouse. […] Fritzler et al. further characterized the ultrastructure of TLT hepatoma ascites cells. Regarding our experimental conditions, the TLT tumor was maintained by weekly intraperitoneal (i.p.) transplantation (10^4 cells/mice). […] Then, mice mortality was daily recorded. […]
The antitumor activity was calculated according to Geran et al. using the mean survival time (m.s.t.) at day 30 and the increase in life span (ILS) calculated as ILS = [([…]) − 1] × 100. […]

The subject of another assay is Hsp90. As to the kind of experiment: Immunoblot of Hsp90 protein integrity in TLT cells. It is filed as cell-based, murine. The conditions noted are these: 5 µM plus 1 mM ascorbate, 4 h. How it is done: Cancer cells were incubated for 4 h with 5 µM menadione (K3) or 15 either in the absence or in the presence of 1 mM ascorbate (Asc). Ctl represents control untreated cells. * p < 0.05 as compared to control conditions. Cancer cells were incubated for 4 h in the absence and in the presence of compounds. Afterward, cells were washed twice with ice-cold PBS and then resuspended in RIPA lysis buffer supplemented with 1% protease inhibitor cocktail (Sigma–Aldrich, St. Louis, MO, USA) and 3% phosphatase inhibitor cocktail (Calbiochem, Darmstadt, Germany). Treatment of samples and electrophoresis conditions were conducted as previously reported. Mouse monoclonal primary antibodies against hsp90α/β C-terminus (F8), and against β-actin (clone AC-15), were purchased from Santa Cruz Biotechnology (Santa Cruz, CA, USA) and from Abcam (Cambridge, UK), respectively. Rabbit polyclonal antibodies against PARP were purchased from BD Biosciences (San Diego, CA, USA). Goat anti-rabbit antibody and rabbit anti-mouse polyclonal antibody were purchased respectively from Chemicon International (Temecula, CA, USA) and DakoCytomation (Glostrup, Denmark).
Background: In western blotting, separated proteins are transferred to a membrane and probed.

Where “and” joins values, the source holds several entries; their conditions need not be identical. Equal values may be shown once. Read-outs that look alike come from different tables or passages of the source.

With `Cc1ccc2c(c1)SC1=NC3=C(C(=O)c4ccccc4C3=O)C(C)(O)N12` (stereo not drawn) [Compound 15], the IC50 (commonly the concentration that gives 50% inhibition) was 2980 ± 520 nM in the assay on MCF-7 (breast) cells, 110 to 1770 nM in assay [1] (read-out: IC50 values on the panel of cancer cells (range over cell lines)) and 1100 to 1610 nM in assay [1] (read-out: mean IC50 value calculated from the individual IC50 values of the three cancer cell lines). Further, the “MSI: mean selective index” value in assay [1] (IC50 values of fibroblasts (AG 1523)/IC50 values of tumor cells (T24, DU-145, MCF-7)) is given as 29.4. In addition, the inhibition at 0.25 µM in the assay on T24 cells (Homo sapiens, T-24, clonogenic assay, 0.25 µM, read-out: inhibition of the proliferation of T24 cells as compared to control untreated cells) amounted to 63%. Also, the “cell growth compared to control conditions (100%), in brackets” value is 92% in the assay on T24 cells (0.025 µM); 83% in the assay with T24 cells (0.125 µM); 37% with T24 cells (0.25 µM); 11% in the assay with T24 cells (1.25 µM); 8% in the assay on T24 cells (2.5 µM); 1% in the assay on T24 cells (5.0 µM). Further, the “number of colony forming units (CFUs)” value in the assay with T24 cells (0.025 µM) is 180 ± 11 CFUs; in the assay on T24 cells (0.125 µM), 162 ± 18 CFUs; in the assay on T24 cells (0.25 µM), 72 CFUs and 72 ± 5 CFUs; in the assay with T24 cells (1.25 µM), 22 ± 9 CFUs; in the assay with T24 cells (2.5 µM) it was 16 ± 3 CFUs; with T24 cells (5.0 µM), 2 ± 1 CFUs. For the same compound, the “mean survival time (m.s.t.)” value in assay [2] (10 mg/kg i.p. single dose 24 h after i.p. transplantation, control 21.9 days) came to 24.0 days. In addition, the “increase in life span (ILS)” value in assay [2] (10 mg/kg i.p. single dose, vs control untreated animals) is recorded as 9.6%. For the same compound, the “mean of individual mouse survival” value in assay [2] (10 mg/kg i.p., control 21.2 ± 1.6 days, t-test p = 0.262, no significant difference) is given as 22.8 ± 6.1 days. In the assay with Hsp90, the Hsp90 protein cleavage result is “oxidative cleavage of Hsp90”.
